In ChEMBL document CHEMBL1133295, “Towards enzyme activated antiprostatic agents” (Bioorg Med Chem Lett, 2000):

Columns and labels:
Type in all cases: functional, cell-based
Conditions in all cases: Homo sapiens
[1] = test system: LNCaP; test: The compound was evaluated for cytotoxicity by assessing 3H thymidine uptake in LNCaP cell line in presence of PSA (1 ug)
[2] = test system: MCF7; test: The compound was evaluated for cytotoxicity by assessing 3H thymidine uptake in MCF-7 cell line
[3] = test system: HEK293; test: The compound was evaluated for cytotoxicity by assessing 3H thymidine uptake in HEK293 cell line in presence of PSA (1 ug)
[4] = test system: HEK293; test: The compound was evaluated for cytotoxicity by assessing 3H thymidine uptake in HEK293 cell line
[5] = test system: LNCaP; test: The compound was evaluated for cytotoxicity by assessing 3H thymidine uptake in LNCaP cell line

Structure (SMILES)	IC50 [1]	IC50 [2]	IC50 [3]	IC50 [4]	IC50 [5]
N[C@@H](Cc1ccc(O)cc1)C(=O)Nc1ccc(COC(=O)N(CCCl)CCCl)cc1	34 µM	> 900 µM	173 µM	176 µM	33 µM
CC(C)(C)OC(=O)N[C@@H](Cc1ccc(O)cc1)C(=O)Nc1ccc(COC(=O)N(CCO)CCO)cc1		> 900 µM		> 600 µM	> 500 µM
